PubChem BioAssay AID2060363 (Molecular Pharmacology Branch, DTP, NCI, 2025)
Where “and” joins values, the source holds several entries; their conditions need not be identical. Identical values can stand only once. One block for each compound: values may come before it.

Tested on: 156681-154-R-J1-PDC tumor spheroids, viability % test/control
Assay: Anticancer human tumor 156681-154-R-J1-PDC patient-derived melanoma cell line growth inhibition [TAK]
Settings: spheroids with HUVEC and MSC; for viability, T/C: stronger effect = lower value
How it was run: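 Drug combinations, each paired with TAK-243 or ipatasertib, were tested on multi-cell spheroids of 60% malignant cells, 25% HUVEC and 15% hMSC. Top concentrations were at or near the clinical Cmax (10 microM if undetermined), decreasing by half-log; viability is given as % test/control.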

[1] = curve of first compound, second compound 0.3 µM
[2] = curve of first compound, second compound 0.949 µM
[3] = curve of first compound, second compound 3 µM
[4] = curve of first compound, second compound 9.49 µM
[5] = curve of first compound, second compound 30 µM
[6] = second compound 0.3 µM, first compound 0.0316 µM
[7] = second compound 0.3 µM, first compound 0.1 µM
[8] = second compound 0.3 µM, first compound 0.316 µM
[9] = second compound 0.3 µM, first compound 1 µM
[10] = second compound 0.3 µM, first compound 3.16 µM
[11] = second compound 0.3 µM, first compound 10 µM
[12] = second compound 0.949 µM, first compound 0.0316 µM
[13] = second compound 0.949 µM, first compound 0.1 µM
[14] = second compound 0.949 µM, first compound 0.316 µM
[15] = second compound 0.949 µM, first compound 1 µM
[16] = second compound 0.949 µM, first compound 3.16 µM
[17] = second compound 0.949 µM, first compound 10 µM
[18] = second compound 3 µM, first compound 0.0316 µM
[19] = second compound 3 µM, first compound 0.1 µM
[20] = second compound 3 µM, first compound 0.316 µM
[21] = second compound 3 µM, first compound 1 µM
[22] = second compound 3 µM, first compound 3.16 µM
[23] = second compound 3 µM, first compound 10 µM
[24] = second compound 9.49 µM, first compound 0.0316 µM
[25] = second compound 9.49 µM, first compound 0.1 µM
[26] = second compound 9.49 µM, first compound 0.316 µM
[27] = second compound 9.49 µM, first compound 1 µM
[28] = second compound 9.49 µM, first compound 3.16 µM
[29] = second compound 9.49 µM, first compound 10 µM
[30] = second compound 30 µM, first compound 0.0316 µM
[31] = second compound 30 µM, first compound 0.1 µM
[32] = second compound 30 µM, first compound 0.316 µM
[33] = second compound 30 µM, first compound 1 µM
[34] = second compound 30 µM, first compound 3.16 µM
[35] = second compound 30 µM, first compound 10 µM
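Also: spheroids exposed to compounds for 7 days before the endpoint.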

SMILES: CC(C)(C)c1nc(-c2cccc(NS(=O)(=O)c3c(F)cccc3F)c2F)c(-c2ccnc(N)n2)s1 + CC(C)NCC(C(=O)N1CCN(c2ncnc3c2C(C)CC3O)CC1)c1ccc(Cl)cc1
IC50 [1]: 0.239 µM
IC50 [2]: 0.214 µM
IC50 [3]: 0.148 µM
IC50 [4]: < 0.0316 µM
IC50 [5]: < 0.0316 µM
viability, T/C [6]: 103%
viability, T/C [7]: 90.7%
viability, T/C [8]: 36.9%
viability, T/C [9]: 14.5%
viability, T/C [10]: 11.9%
viability, T/C [11]: 12.7%
viability, T/C [12]: 90.1%
viability, T/C [13]: 79%
viability, T/C [14]: 35.1%
viability, T/C [15]: 12.7%
viability, T/C [16]: 8.47%
viability, T/C [17]: 8.82%
viability, T/C [18]: 67.6%
viability, T/C [19]: 62.4%
viability, T/C [20]: 26.1%
viability, T/C [21]: 7.91%
viability, T/C [22]: 5.22%
viability, T/C [23]: 6.48%
viability, T/C [24]: 40.1%
viability, T/C [25]: 31.7%
viability, T/C [26]: 17.3%
viability, T/C [27]: 6.56%
viability, T/C [28]: 3.41%
viability, T/C [29]: 3.45%
viability, T/C [30]: 15.6%
viability, T/C [31]: 13%
viability, T/C [32]: 7.77%
viability, T/C [33]: 2.12%
viability, T/C [34]: 1.1%
viability, T/C [35]: 1.52%

SMILES: CCCS(=O)(=O)Nc1ccc(F)c(C(=O)c2c[nH]c3ncc(-c4ccc(Cl)cc4)cc23)c1F + CC(C)NCC(C(=O)N1CCN(c2ncnc3c2C(C)CC3O)CC1)c1ccc(Cl)cc1
IC50 [1]: 8.19 µM
IC50 [2]: 7.51 µM
IC50 [3]: 3.82 µM
IC50 [4]: < 0.316 µM
IC50 [5]: < 0.316 µM
viability, T/C [8]: 104%
viability, T/C [9]: 111%
viability, T/C [10]: 103%
viability, T/C [11]: 24.5%
viability, T/C (second compound 0.3 µM, first compound 31.6 µM): 0.49%
viability, T/C (second compound 0.3 µM, first compound 100 µM): 91.8%
viability, T/C [14]: 89.5%
viability, T/C [15]: 101%
viability, T/C [16]: 85.2%
viability, T/C [17]: 15.7%
viability, T/C (second compound 0.949 µM, first compound 31.6 µM): 16.6%
viability, T/C (second compound 0.949 µM, first compound 100 µM): 82.9%
viability, T/C [20]: 83%
viability, T/C [21]: 72.8%
viability, T/C [22]: 58.8%
viability, T/C [23]: 6.57%
viability, T/C (second compound 3 µM, first compound 31.6 µM): 3.37%
viability, T/C (second compound 3 µM, first compound 100 µM): 3.64%
viability, T/C [26]: 41.6%
viability, T/C [27]: 42.8%
viability, T/C [28]: 36.5%
viability, T/C [29]: 1.52%
viability, T/C (second compound 9.49 µM, first compound 31.6 µM): 0.38%
viability, T/C (second compound 9.49 µM, first compound 100 µM): 0.73%
viability, T/C [32]: 19.2%
viability, T/C [33]: 19.2%
viability, T/C [34]: 4.74%
viability, T/C [35]: 0.42%
viability, T/C (second compound 30 µM, first compound 31.6 µM): 0.39%
viability, T/C (second compound 30 µM, first compound 100 µM): 0.5%

SMILES: Cc1nc(NC(=O)N2CCCC2C(N)=O)sc1-c1ccnc(C(C)(C)C(F)(F)F)c1 (stereo unspecified) + CC(C)NCC(C(=O)N1CCN(c2ncnc3c2C(C)CC3O)CC1)c1ccc(Cl)cc1
IC50 [1]: > 10 µM
IC50 [2]: 7.11 µM
IC50 [3]: 1.46 µM
IC50 [4]: < 0.0316 µM
IC50 [5]: < 0.0316 µM
viability, T/C [6]: 95.5%
viability, T/C [7]: 99%
viability, T/C [8]: 91%
viability, T/C [9]: 71.5%
viability, T/C [10]: 67.3%
viability, T/C [11]: 51.4%
viability, T/C [12]: 85.8%
viability, T/C [13]: 83.9%
viability, T/C [14]: 79%
viability, T/C [15]: 70.3%
viability, T/C [16]: 62%
viability, T/C [17]: 44.9%
viability, T/C [18]: 69.7%
viability, T/C [19]: 67.9%
viability, T/C [20]: 61.5%
viability, T/C [21]: 53.8%
viability, T/C [22]: 42.5%
viability, T/C [23]: 30.6%
viability, T/C [24]: 39.5%
viability, T/C [25]: 35.6%
viability, T/C [26]: 36.6%
viability, T/C [27]: 26.8%
viability, T/C [28]: 17.2%
viability, T/C [29]: 7.68%
viability, T/C [30]: 18%
viability, T/C [31]: 18%
viability, T/C [32]: 11.3%
viability, T/C [33]: 8.89%
viability, T/C [34]: 3.83%
viability, T/C [35]: 0.52%

Continued, in another order:

IC50 (curve of compound): > 10 µM
SMILES: Cc1nc(NC(=O)N2CCCC2C(N)=O)sc1-c1ccnc(C(C)(C)C(F)(F)F)c1 (stereo unspecified)
viability, T/C (compound 0.0316 µM): 97.2% and 99.7%
viability, T/C (compound 0.1 µM): 94.9% and 98.4%
viability, T/C (compound 0.316 µM): 86.1% and 86.6%
viability, T/C (compound 1 µM): 86.8% and 74.4%
viability, T/C (compound 3.16 µM): 67.9% and 64.5%
viability, T/C (compound 10 µM): 52.8% and 56.2%

IC50 (curve of compound): 0.0929 µM and > 0.1 µM
SMILES: COC1CC2CCC(C)C(O)(O2)C(=O)C(=O)N2CCCCC2C(=O)OC(C(C)CC2CCC(OCCO)C(OC)C2)CC(=O)C(C)C=C(C)C(O)C(OC)C(=O)C(C)CC(C)C=CC=CC=C1C (stereo unspecified)
viability, T/C (compound 0.000316 µM): 98.5% and 87%
viability, T/C (compound 0.001 µM): 81.8% and 87.3%
viability, T/C (compound 0.00316 µM): 70% and 71.2%
viability, T/C (compound 0.01 µM): 59.4% and 64.1%
viability, T/C (compound 0.0316 µM): 62.3% and 59.9%
viability, T/C (compound 0.1 µM): 46% and 51.8%

IC50 (curve of compound): 0.0673 µM and 0.067 µM
SMILES: COc1c(OCCCN2CCOCC2)ccc2c3n(c(=NC(=O)c4cnc(N)nc4)nc12)CCN3
viability, T/C (compound 0.00316 µM): 101% and 102%
viability, T/C (compound 0.01 µM): 91.1% and 89.1%
viability, T/C (compound 0.0316 µM): 67.9% and 77.9%
viability, T/C (compound 0.1 µM): 41.9% and 35.2%
viability, T/C (compound 0.316 µM): 13.5% and 10.8%
viability, T/C (compound 1 µM): 2.91% and 1.78%
